“Also recorded” adds a separate entry of the source.
Experiments:
[1] = tested on: human melanoma cell line BLM; experiment: Spheroid invasion assay (migrastatic activity); assay type: cell-based; details: 24 h; for migrastatic activity (cell migration, in words): 10 μM, BLM spheroid invasion; for rel. spheroid area: 10 µM, BLM spheroids in collagen, DMSO control 1.02
Protocol: Compounds 17, 20, and 22–30 were screened for their migrastatic activity using a spheroid invasion assay with the human melanoma cell line BLM.[46] Spheroids were formed and subsequently treated with cytochalasin analogues at a concentration of 10 μM for 24 h. CytB (1) and CytD (2) served as reference compounds for comparison. There was no significant increase in cell migration observed for any of the compounds tested. […] However, the effect was less profound than that of the reference compounds 1 and 2.
The spheroid invasion assay was performed following a previously published protocol.[63] Briefly, BLM cells were grown as spheroids using 3D Petri Dish (Microtissues). After 2 days of spheroid formation, 1.5 mg mL^−1 collagen solution (rat tail, collagen type I) was prepared (1.5 mg mL^−1 rat-tail collagen, 1× DMEM, 1% (v/v) FBS) and added at the bottom of a 96-well plate. Spheroids were embedded into the collagen (one spheroid per well) and covered with another layer of the gel. Collagen was polymerized at 37 °C and subsequently overlaid with a cultivation medium. Images of spheroids were taken with Leica TCS SP2 microscope (5×/0.15 dry objective; LAS X Life Science Microscope software) immediately after their seeding into collagen and again after 24 h. The area of the spheroids at 0 and 24 h was measured using FiJi (Rasband, W.S., ImageJ, NIH, Bethesda, MD, USA). Cellular invasiveness was determined as an increase in spheroid area within 24 h. Three independent experiments were conducted with at least 8 spheroids analysed in each experiment. Statistical analysis was performed in GraphPad using one-way ANOVA. For numeric data and representative images from this assay, see ESI, ^† Table S1 and Fig. S1.
Table S1: Spheroid invasion assay with BLM cell line at 10 µM concentration, 24 h.
Figure S1: Representative images of BLM cell spheroid invasion assay with or without
inhibitor. Images were taken at 0 h and 24 h. using a Leica TCS SP2 microscope (5x/0.15
dry objective). DMSO (first column) was used as a control. Scale bar 500 µm.

actin = target: T1, actin (Oryctolagus cuniculus, UniProt P68135); experiment: Actin polymerization assay (pyrene-actin, Actin Polymerization Biochem Kit); assay type: biochemical; details: 10 μM, in vitro
T1 construct: purchased Cytoskeleton, Inc, Denver, CO
Protocol: To further ascertain the compounds' interference with actin polymerization, the active compounds, along with CytB (1) as a positive control and compound 26 as a negative control, were subjected to an in vitro actin polymerization assay (Fig. 2B). […] This correlation between actin inhibitory activity and migrastatic effect underscores the pivotal role of actin polymerization inhibition in mediating the observed migrastatic activity.
Actin polymerization assay was performed using Actin Polymerization Biochem Kit™ (Cytoskeleton, Inc, Denver, CO) according to the manufacturer protocol. Briefly, 25 μL of G-buffer containing labelled pyrene-actin (0.4 mg mL^−1) and 2.48 μL of either DMSO (10 μM, control) or inhibitor (10 μM) was added in […] well plate. Actin polymerization was initiated by the addition of 2.48 μL of 10× actin polymerization buffer and analysed in time until fluorescent signal plateau was reached using a spectrophotometer (Infinite 200 PRO, Tecan Life Sciences, Tecan Group Ltd., Zürich, CHE). The fluorescence emission intensity of actin polymerization was measured at 420 nm and 360 nm was used as excitation wavelength. Statistical analysis was performed in GraphPad using one-way ANOVA. Measurements were performed in three independent repetitions each consisting of at least three technical replicates. For a representative graph from this assay, see ESI, ^† Fig. S2.

[2] = tested on: human melanoma cells (BLM); experiment: WST-1 viability assay, BLM cells; assay type: cell-based; details: for IC50: Homo sapiens, 72 h treatment, WST-1 assay, 2D culture, 0–50 μM; for selectivity index (SI): MRC-5 versus BLM, 72 h, WST-1
Protocol: (§1) In addition, the cytotoxic activity of compounds 17, 20, and 22–30 was assessed by the WST-1 viability assay using BLM (human melanoma) and MRC-5 (noncancerous human fibroblasts) cells growing in a monolayer (2D cultures, Table 2) after 72 h of treatment.
(§2) Human cells from melanoma (BLM) and human lung fibroblasts (MRC-5, Merck, USA) were used to evaluate in vitro cytotoxicity of the prepared compounds. The cells were maintained at the exponential phase of growth (passaging done by trypsin–EDTA solution) in DMEM and MEM, for BLM and MRC-5, respectively, with stable L-glutamine and supplemented with 10% fetal bovine serum (Thermo Fisher Scientific, USA). The cells were kept in an incubator at 37 °C, 5% CO2 in the atmosphere, and 95% humidity.
(§3) The compound cytotoxicity was determined by a WST-1 viability assay (Merck, USA). The amount of 5000 BLM and MRC-5 cells were seeded into individual wells of 96-well plates in 100 μL of cell cultivation media and maintained in an incubator for 16 h. After this period, the cells were treated with a concentration series (0–50 μM) of the tested compounds diluted in another 100 μL of cultivation media, which was added to the wells containing cells and incubated for 72 h. Then, BLM and MRC-5 cell viability was evaluated by WST-1 agent (5% v/v solution in phenol red-free DMEM media), i.e., the cell media was discarded and 100 μL of WST-1 solution was added. After 2 h incubation, the absorbance of formazan, derived from the WST-1 tetrazolium salt was determined spectrophotometrically at 450 nm (reference at 650 nm) by a UV-vis spectrophotometer (Bio-Rad, USA). Untreated cells, cells treated only with a vehicle, and cells treated with cytochalasin B (1) and D (2) served as controls. The measurement occurred in three independent repetitions each of which consisted of three technical replicates. The data were plotted as dose–response curves from which the half-maximal inhibitory concentrations (IC50) were calculated using AAT Bioquest.

[3] = tested on: human fibroblasts (MRC-5); experiment: WST-1 viability assay, MRC-5 cells; assay type: cell-based; details: MRC5, 72 h treatment, WST-1 assay, 2D culture, 0–50 μM
Protocol: as §1, §2, §3

[4] = tested on: HT1080 fibrosarcoma cells; experiment: Fluorescence microscopy of actin cytoskeleton (SPY650-FastAct time-lapse); assay type: cell-based; details: 10 μM, within 2 min of addition
Protocol: Next, we conducted experiments to assess the impact of compound 24, CytB (1) and CytD (2) on the actin cytoskeleton using fluorescence microscopy in HT1080 fibrosarcoma cells (Fig. 3). […] Therefore, we increased the concentration up to 50 μM.
HT1080 cells were seeded into 12-well glass bottom plate and stained with SPY650-FastAct™ following manufacturer's protocol. Untreated cells (control) were imaged every 20 s for 15 min using Leica TCS SP2 microscope (40×/0.6 dry objective). Afterwards, an inhibitor (compound 24 at 10 μM; 50 μM or compound 1 and 2 at 10 μM) was added into the same well and its effect was recorded for 15 min (20 s/image). All video recordings were analyzed using FiJi (Rasband, W.S., ImageJ, NIH, Bethesda, MD, USA).

| Compound | migrastatic activity (cell migration, in words) [1] | rel. spheroid area [1] | inhibition of actin polymerization (in words) (actin) | IC50 [2] [µM] | selectivity index (SI) [2] | IC50 [3] [µM] | effect on the actin cytoskeleton [4] |
| --- | --- | --- | --- | --- | --- | --- | --- |
| COC(=O)[C@@]12C(=O)N[C@@H](Cc3ccccc3)[C@@H]1[C@H](C)C(C)=C[C@@H]2CCCOCc1ccccc1 [Compound 20, Methyl (1S,3aR,4S,7S,7aR)-1-benzyl-4-(3-(benzyloxy)propyl)-6,7-dimethyl-3-oxo-1,2,3,4,7,7a-hexahydro-3aH-isoindole-3a-carboxylate] | significant decrease in cell migration; also recorded: modest migrastatic activity | 0.56 | inhibit actin polymerization | 28.4 ± 0.59 | 1.0 | 28.6 ± 1.86 | – |
| COC(=O)[C@@]12C(=O)N[C@@H](Cc3ccccc3)[C@@H]1[C@H](C)[C@@](C)(O)[C@@H](O)[C@@H]2CCOCCc1ccc(Br)cc1 [Compound 23h, Methyl (1S,3aS,4R,5S,6R,7S,7aR)-1-benzyl-4-(2-(4-bromophenethoxy)ethyl)-5,6-dihydroxy-6,7-dimethyl-3-oxooctahydro-3aH-isoindole-3a-carboxylate] | – | 0.93 | – | 23 ± 2.17 | >2.2 | > 50 | – |
| COC(=O)[C@@]12C(=O)N[C@@H](Cc3ccccc3)[C@@H]1C(C)=C(C)[C@@H](O)[C@@H]2CCOCCc1ccccc1 [Compound 25, Methyl (1S,3aS,4R,5S,7aR)-1-benzyl-5-hydroxy-6,7-dimethyl-3-oxo-4-(2-phenethoxyethyl)-1,2,3,4,5,7a-hexahydro-3aH-isoindole-3a-carboxylate] | inactivity | 1.15 | – | > 50 | – | > 50 | – |
| COC(=O)[C@@]12C(=O)N[C@@H](Cc3ccccc3)[C@@H]1[C@H](C)[C@@](C)(Cl)[C@H](O)[C@@H]2CCOCCc1ccccc1 [Compound 26, Methyl (1S,3aS,4R,5R,6R,7S,7aR)-1-benzyl-6-chloro-5-hydroxy-6,7-dimethyl-3-oxo-4-(2-phenethoxyethyl)octahydro-3aH-isoindole-3a-carboxylate] | – | 0.88 | – | > 50 | – | > 50 | – |
| C=C1[C@@H](C)[C@H]2[C@H](Cc3ccccc3)NC(=O)[C@@]2(C(=O)OC)[C@@H](CCOCCc2ccccc2)[C@@H]1OC(C)=O [Compound 27, Methyl (1S,3aS,4R,5S,7S,7aR)-5-acetoxy-1-benzyl-7-methyl-6-methylene-3-oxo-4-(2-phenethoxyethyl)octahydro-3aH-isoindole-3a-carboxylate] | inactive | 0.89 | – | > 50 | – | > 50 | – |
| COC(=O)[C@@]12C(=O)N[C@@H](Cc3ccccc3)[C@@H]1C(C)=C(C)[C@@H](OC(C)=O)[C@@H]2CCOCCc1ccccc1 [Compound 28, Methyl (1S,3aS,4R,5S,7aR)-5-acetoxy-1-benzyl-6,7-dimethyl-3-oxo-4-(2-phenethoxyethyl)-1,2,3,4,5,7a-hexahydro-3aH-isoindole-3a-carboxylate] | – | 0.72 | – | > 50 | – | > 50 | – |
| CC1=C[C@H](CCOCCc2ccccc2)[C@]2(C(=O)O)C(=O)N[C@@H](Cc3ccccc3)[C@@H]2[C@@H]1C [Compound 29, (1S,3aR,4S,7S,7aR)-1-Benzyl-6,7-dimethyl-3-oxo-4-(2-phenethoxyethyl)-1,2,3,4,7,7a-hexahydro-3aH-isoindole-3a-carboxylic acid] | – | 1.05 | – | > 50 | – | > 50 | – |
| CC1=C[C@H](CCOCCc2ccccc2)[C@]2(CO)C(=O)N[C@@H](Cc3ccccc3)[C@@H]2[C@@H]1C [Compound 30, (3S,3aR,4S,7S,7aS)-3-Benzyl-7a-(hydroxymethyl)-4,5-dimethyl-7-(2-phenethoxyethyl)-2,3,3a,4,7,7a-hexahydro-1H-isoindol-1-one] | significant decrease in cell migration; also recorded: modest migrastatic activity | 0.50 | inhibit actin polymerization | > 50 | – | > 50 | – |
| C=C1[C@@H](C)[C@H]2[C@H](Cc3ccccc3)NC(=O)[C@]23OC(=O)/C=C/[C@H](O)CCC[C@@H](C)C/C=C/[C@H]3[C@@H]1O [CytB (1), cytochalasin B, reference compound] | – | 0.26 | – | 26.2 ± 0.55 | 0.01 | 0.27 ± 0.01 | profound effect on the actin cytoskeleton |
| C=C1[C@@H](C)[C@H]2[C@H](Cc3ccccc3)NC(=O)[C@]23[C@H](OC(C)=O)/C=C/[C@@](C)(O)C(=O)[C@@H](C)C/C=C/[C@H]3[C@@H]1O [CytD (2), cytochalasin D, reference compound] | – | 0.23 | – | 13.7 ± 1.2 | 0.17 | 2.36 ± 0.07 | profound effect on the actin cytoskeleton |

Reference: publication PMC10809383, “Synthesis and migrastatic activity of cytochalasin analogues lacking a macrocyclic moiety” (RSC Medicinal Chemistry, 2023)
